Twelve compounds from patent US11840560B2, “Prodrugs and uses thereof” (Novo Nordisk A/S, priority 2022, dated 2023) can be followed below.

*1 amine or outer side, *2 acyl side, *3 side chain or, on linkers, in order; H or OH if unused. Where a SMILES comes first, the peptide text is derived from it. Side-chain parts run from the residue outwards. [ ]: non-standard residue; d: D form. The star is where a group is joined. N(2-Aminoethyl)Gly = O=C(CN(CCN[*:3])[*:1])[*:2]; C18 diacid = O=C(O)CCCCCCCCCCCCCCCCC(=O)*; C16 diacid = O=C(O)CCCCCCCCCCCCCCC(=O)*; γGlu = O=C(O)[C@H](CCC(=O)[*:2])N[*:1]; εLys = N[C@@H](CCCCN[*:1])C(=O)[*:2]; AEEA = NCCOCCOCC(=O)O; Aib = CC(C)(N)C(=O)O; Sar = CNCC(=O)O

Data set [1] can be described thus: physchem. Type of data set: physicochemical. Particulars: buffer, pH 7.4. The protocol: The assay was performed to investigate the conversion half-life of prodrug to drug of the prodrugs of the invention. The conversion half-life was investigated in vitro at pH 7.4 upon incubation at 37° C.
Test compounds were dissolved to a concentration of 100 μM in phosphate-buffered saline (140 mM NaCl, 2.07 mM KCl, 8.05 mM Na2HPO4, 1.96 mM KH2PO4, pH 7.4). Solution pH was measured after dissolution and adjusted to pH 7.4 with aqueous NaOH if necessary. The solution was filtered through a 0.22 μm syringe filter, then incubated in a water bath at 37° C. Aliquots were withdrawn at defined timepoints, e.g. every 24-72 hours, for LCMS analysis.
LCMS analysis was performed using the procedure defined in LCMS_A above. The AUC of the prodrug, active drug, and DKP were determined using UV detection at 214 nm, and the ratio of prodrug AUC over total AUC of prodrug plus active drug plus DKP was calculated. The negative natural logarithm of this ratio was plotted over time, and a linear regression of this relationship was then performed.
The prodrug to drug conversion half-life of the compounds of the invention was measured as described in General Methods for Measuring Conversion Half-life.

Data set [2] in a line: in vivo. On the set-up: species or system beagle dogs. To be noted: dog, po, 300 mg; for Tmax / half-life: male, beagle. As for the experimental part:
The purpose of this method is to determine the terminal half-life and plasma exposure in vivo of the compounds of the present invention after p.o. administration to beagle dogs, i.e. the terminal half-life and concentration of test substance that reaches circulation with time. This is done in a pharmacokinetic (PK) study, where these parameters of the compound in question are determined. By terminal half-life is generally meant the period of time it takes to halve a certain plasma concentration, measured after the initial distribution phase.
Tablet compositions comprising the test compounds obtained from Example 1 and SNAC (sodium N-(8-(2-hydroxybenzoyl)amino)caprylate) were prepared according to methods known to the person skilled in the art by mixing test substance with roller compacted SNAC and magnesium stearate as e.g. described in WO 2019/149880. Each tablet was comprised of 7.7 mg magnesium stearate, 2-4 mg of each compound tested, and 300 mg SNAC.
Male beagle dogs, 1-7 years of age and weighing 9-17 kg during the study period, were included in the study. The dogs were dosed in a fasting state. The dogs were group housed in pens (12 hours light: 12 hours dark), and fed individually and restrictedly once daily with Royal Canin Medium Adult dog food (Royal Canin Products, China Branch, or Brogaarden A/S, Denmark). The dogs were used for repeated PK studies with a suitable wash-out period between successive dosing. An appropriate acclimatisation period was given prior to initiation of the first PK study. All handling, dosing, and blood sampling of the animals were performed by trained and skilled staff. Before the studies, the dogs were fasted overnight and from 0 to 4 hours after dosing. The dogs were restricted to water 1 hour before dosing until 4 hours after dosing, but otherwise had adlibitum access to water during the whole period.
The compositions were administered by a single oral dosing to the dogs in groups of 6-8 dogs. The tablets were administered in the following manner: 10 min prior to tablet administration, the dogs may be dosed subcutaneously with approximately 3 nmol/kg of SEQ ID NO.: 7 ([…]), then tablets were placed in the back of the mouth of the dog to prevent chewing. The mouth was then closed, and 10 mL of tap water was given by syringe or gavage to facilitate swallowing of the tablet.
One blood sample was drawn before dosing, and additional samples were drawn at predefined time points after dosing, such as for up to 600 hours, to adequately cover the full plasma concentration-time absorption profile of the test substance. For each blood sample time point, approximately 0.8 mL of whole blood was collected in a 1.5 mL EDTA-coated tube, which was gently turned to mix the sample with EDTA. Blood samples were collected in EDTA buffer (8 mM) and then centrifuged at 4° C. and 2000 g for 10 minutes. Plasma was pipetted into Micronic tubes on dry ice, and kept at −20° C. or lower until analysis. Blood samples were taken as appropriate, for example from a venflon in the cephalic vein in the front leg for the first 2 hours and then with syringe from the jugular vein for the rest of the time points. The first few drops were allowed to drain from the venflon to avoid heparin saline from the venflon in the sample. All blood samples were collected into test tubes containing EDTA for stabilisation and kept on ice until centrifugation. Plasma was separated from whole blood by centrifugation and the plasma was stored at −20° C. or lower until analysis.
The plasma was analysed for test substance using LC-MS (Liquid Chromatography-Mass Spectrometry) as known to the person skilled in the art. […]

For the compound “H-K([γGlu-C18 diacid])[Sar]Y[Aib]EGTFTSDYSILLEEQAAREFIEWLLAGGPSK([εLys-εLys-γGlu-C16 diacid])GAPPPS-OH [Compound 13]”, in data set [1], the half-life at 100 μM is 137 h. Besides, in data set [2], the AUC/Dose is 41.3 kg·h/L, the Cmax/Dose turned out to be 0.36 kg/L, the Tmax amounted to 4.3 h and the half-life was 121 h.
In data set [1], “H-D[N(2-Aminoethyl)Gly]([γGlu-C16 diacid])Y[Aib]EGTFTSDYSILLEEQAAREFIEWLLAGGPSK([AEEA-AEEA-γGlu-C16 diacid])GAPPPS-OH [Compound 7]” had a half-life at 100 μM of 38 h.
As for “H-P[N(2-Aminoethyl)Gly]([γGlu-C16 diacid])Y[Aib]EGTFTSDYSILLEEQAAREFIEWLLAGGPSK([AEEA-AEEA-γGlu-C16 diacid])GAPPPS-OH [Compound 6]”, the half-life at 100 μM in data set [1] was 440 h.
Take `CC[C@H](C)[C@H](NC(=O)[C@H](CC(C)C)NC(=O)[C@H](Cc1c[nH]c2ccccc12)NC(=O)[C@H](CCC(N)=O)NC(=O)[C@@H](NC(=O)[C@H](Cc1ccccc1)NC(=O)[C@H](C)NC(=O)[C@H](CCCCNC(=O)COCCOCCNC(=O)COCCOCCNC(=O)CC[C@H](NC(=O)CCCCCCCCCCCCCCCCCCC(=O)O)C(=O)O)NC(=O)[C@H](CCC(N)=O)NC(=O)[C@H](C)NC(=O)[C@@H](NC(=O)[C@H](CCCCN)NC(=O)[C@H](CC(=O)O)NC(=O)[C@H](CC(C)C)NC(=O)C(C)(C)NC(=O)[C@@H](NC(=O)[C@H](CO)NC(=O)[C@H](Cc1ccc(O)cc1)NC(=O)[C@H](CC(=O)O)NC(=O)[C@H](CO)NC(=O)[C@@H](NC(=O)[C@H](Cc1ccccc1)NC(=O)[C@@H](NC(=O)CNC(=O)[C@H](CCC(=O)O)NC(=O)C(C)(C)NC(=O)[C@@H](N)Cc1ccc(O)cc1)[C@@H](C)O)[C@@H](C)O)[C@@H](C)CC)[C@@H](C)CC)C(C)C)C(=O)N[C@@H](C)C(=O)NCC(=O)NCC(=O)N1CCC[C@H]1C(=O)N[C@@H](CO)C(=O)N[C@@H](CO)C(=O)NCC(=O)N[C@@H](C)C(=O)N1CCC[C@H]1C(=O)N1CCC[C@H]1C(=O)N1CCC[C@H]1C(=O)N[C@@H](CO)C(N)=O` [Parent compound 5]: in data set [2], the AUC/Dose amounted to 13.0 kg·h/L, the Cmax/Dose worked out at 0.22 kg/L, the Tmax was 1 h and the half-life was 134 h.
In data set [1], “H-[dK]([εLys-γGlu-C16 diacid])[Sar]Y[Aib]EGTFTSDYSILLEEQAAREFIEWLLAGGPSK([AEEA-AEEA-γGlu-C16 diacid])GAPPPS-OH [Compound 11]” showed a half-life at 100 μM of 182 h.
In data set [2], `CC[C@H](C)[C@H](NC(=O)[C@H](Cc1ccccc1)NC(=O)[C@H](CCC(=O)O)NC(=O)[C@H](CCCNC(=N)N)NC(=O)[C@H](C)NC(=O)[C@H](C)NC(=O)[C@H](CCC(N)=O)NC(=O)[C@H](CCC(=O)O)NC(=O)[C@H](CCC(=O)O)NC(=O)[C@H](CC(C)C)NC(=O)[C@H](CC(C)C)NC(=O)[C@@H](NC(=O)[C@H](CO)NC(=O)[C@H](Cc1ccc(O)cc1)NC(=O)[C@H](CC(=O)O)NC(=O)[C@H](CO)NC(=O)[C@@H](NC(=O)[C@H](Cc1ccccc1)NC(=O)[C@@H](NC(=O)CNC(=O)[C@H](CCC(=O)O)NC(=O)C(C)(C)NC(=O)[C@@H](N)Cc1ccc(O)cc1)[C@@H](C)O)[C@@H](C)O)[C@@H](C)CC)C(=O)N[C@@H](CCC(=O)O)C(=O)N[C@@H](Cc1c[nH]c2ccccc12)C(=O)N[C@@H](CC(C)C)C(=O)N[C@@H](CC(C)C)C(=O)N[C@@H](C)C(=O)NCC(=O)NCC(=O)N1CCC[C@H]1C(=O)N[C@@H](CO)C(=O)N[C@@H](CCCCNC(=O)[C@@H](N)CCCCNC(=O)[C@@H](N)CCCCNC(=O)CC[C@H](NC(=O)CCCCCCCCCCCCCCCCC(=O)O)C(=O)O)C(=O)NCC(=O)N[C@@H](C)C(=O)N1CCC[C@H]1C(=O)N1CCC[C@H]1C(=O)N1CCC[C@H]1C(=O)N[C@@H](CO)C(=O)O` [Parent compound 3] (H-Y[Aib]EGTFTSDYSILLEEQAAREFIEWLLAGGPSK([εLys-εLys-γGlu-C18 diacid])GAPPPS-OH) displayed an AUC/Dose of 21.4 kg·h/L and a Cmax/Dose of 0.22 kg/L.
As for `CC[C@H](C)[C@H](NC(=O)[C@H](CC(C)C)NC(=O)[C@H](Cc1c[nH]c2ccccc12)NC(=O)[C@H](CCC(N)=O)NC(=O)[C@@H](NC(=O)[C@H](Cc1ccccc1)NC(=O)[C@H](C)NC(=O)[C@H](CCCCNC(=O)COCCOCCNC(=O)COCCOCCNC(=O)CC[C@H](NC(=O)CCCCCCCCCCCCCCCCCCC(=O)O)C(=O)O)NC(=O)[C@H](CCC(N)=O)NC(=O)[C@H](C)NC(=O)[C@@H](NC(=O)[C@H](CCCCN)NC(=O)[C@H](CC(=O)O)NC(=O)[C@H](CC(C)C)NC(=O)C(C)(C)NC(=O)[C@@H](NC(=O)[C@H](CO)NC(=O)[C@H](Cc1ccc(O)cc1)NC(=O)[C@H](CC(=O)O)NC(=O)[C@H](CO)NC(=O)[C@@H](NC(=O)[C@H](Cc1ccccc1)NC(=O)[C@@H](NC(=O)CNC(=O)[C@H](CCC(=O)O)NC(=O)C(C)(C)NC(=O)[C@H](Cc1ccc(O)cc1)NC(=O)[C@@H](NC(=O)[C@@H](N)CCCCNC(=O)CC[C@H](NC(=O)CCCCCCCCCCCCCCC(=O)O)C(=O)O)C(C)C)[C@@H](C)O)[C@@H](C)O)[C@@H](C)CC)[C@@H](C)CC)C(C)C)C(=O)N[C@@H](C)C(=O)NCC(=O)NCC(=O)N1CCC[C@H]1C(=O)N[C@@H](CO)C(=O)N[C@@H](CO)C(=O)NCC(=O)N[C@@H](C)C(=O)N1CCC[C@H]1C(=O)N1CCC[C@H]1C(=O)N1CCC[C@H]1C(=O)N[C@@H](CO)C(N)=O` [Non-converting compound 4], in data set [2], the AUC/Dose is 18.9 kg·h/L, the Cmax/Dose amounted to 0.16 kg/L, the Tmax came to 7 h and the half-life was 136 h.
Regarding “H-A[N(2-Aminoethyl)Gly]([γGlu-C16 diacid])Y[Aib]EGTFTSDYSILLEEQAAREFIEWLLAGGPSK([AEEA-AEEA-γGlu-C16 diacid])GAPPPS-OH [Compound 4]”, in data set [1], the half-life at 100 μM was 97 h.
For “H-K([γGlu-C16 diacid])VY[Aib]EGTFTSDYSILLEEQAAREFIEWLLAGGPSK([εLys-εLys-γGlu-C16 diacid])GAPPPS-OH [Non-converting compound 2]”, in data set [2], the AUC/Dose worked out at 10.8 kg·h/L, the Cmax/Dose is reported as 0.13 kg/L, the Tmax turned out to be 1.3 h and the half-life is 130 h.
Taken in the same sequence, the figures for “H-K([γGlu-C16 diacid])VY[Aib]EGTFTSDYSILLEK([εLys-εLys-γGlu-C18 diacid])QAAREFIEWLLAGGPSSGAPPPS-OH [Non-converting compound 3]” were 31.4 kg·h/L, 0.27 kg/L, 4 h and 115 h.
For the compound “H-G[N(2-Aminoethyl)Gly]([γGlu-C16 diacid])Y[Aib]EGTFTSDYSILLEK([εLys-εLys-γGlu-C18 diacid])QAAREFIEWLLAGGPSSGAPPPS-OH [Compound 17]”, in data set [2], the AUC/Dose stood at 30.4 kg·h/L, the Cmax/Dose is 0.30 kg/L, the time of peak concentration (Tmax) turned out to be 1.5 h and the half-life is 105 h.
In data set [1], “H-K([γGlu-γGlu-C16 diacid])[Sar]Y[Aib]EGTFTSDYSILLEEQAAREFIEWLLAGGPSK([AEEA-AEEA-γGlu-C16 diacid])GAPPPS-OH [Compound 8]” gave a half-life at 100 μM of 125 h.

For orientation: half-life means how long it takes for the measured level to halve. The low end stands for fast loss, the high end for slow loss. By Tmax is commonly meant the time at which the peak concentration occurs.
